According to patent EP2736485B1, “AQUEOUS SOLUTIONS OF […], IN […] SOLUTIONS” (Universität Regensburg, priority 2011, dated 2013):

Assay: Solubilisation of active ingredient in aqueous surfactant solution (stirring overnight at room temperature)
Assay type: physicochemical
Conditions: Aqua bidest. ad 1,00 ml
Protocol: Das einfache grundlegende System besteht aus einem erfindungsgemäß geeigneten Tensid, einem lipophilen Wirkstoff und Wasser. Durch Lösen der Bestandteile mittels Rühren entsteht ein vorzugsweise klares, kolloidales System, in welchem die lipophile Substanz in Mizellen verkapselt gelöst ist.
Wirkstoff und Tensid wurden eingewogen und um 1ml Aqua bidest. ergänzt. Dieser Ansatz wurde über Nacht durch Rühren bei Raumtemperatur (21°C) gelöst. […] Die Messungen wurden mittels Photonenkorellationsspektrometrie durchgeführt.
Die Herstellung erfolgte analog wie bereits unter Beispiel 1 beschrieben.

Q: Which results are given for CCCC1O[C@@H]2C[C@H]3[C@@H]4CCC5=CC(=O)C=C[C@]5(C)[C@H]4[C@@H](O)C[C@]3(C)[C@]2(C(=O)CO)O1 (stereo partly shown) [Budesonid]?
A: Budesonid in Lösung (Solutol® HS15 10,00 mg): 0,09 mg; Budesonid in Lösung (Solutol® HS15 50,00 mg): 0,41 mg; Budesonid in Lösung (Solutol® HS15 100,00 mg): 0,77 mg; Budesonid in Lösung (Solutol® HS15 200,00 mg): 1,32 mg
